Biological target: T1, bovine β-cardiac myosin S1 fragment (cardiac myosin, MYH7) (Bos taurus, UniProt Q9BE39)
T1 construct: Subfragment-1 (S1), AA 1–840; with MYL3 (Uniprot P85100)
Test: ITC; crystal structure at […] Å; SAXS
Assay type: binding
Conditions: read-out: Nucleotide state / ADP-VO4 (n = 5)

T1 sequence (Q9BE39 1-840): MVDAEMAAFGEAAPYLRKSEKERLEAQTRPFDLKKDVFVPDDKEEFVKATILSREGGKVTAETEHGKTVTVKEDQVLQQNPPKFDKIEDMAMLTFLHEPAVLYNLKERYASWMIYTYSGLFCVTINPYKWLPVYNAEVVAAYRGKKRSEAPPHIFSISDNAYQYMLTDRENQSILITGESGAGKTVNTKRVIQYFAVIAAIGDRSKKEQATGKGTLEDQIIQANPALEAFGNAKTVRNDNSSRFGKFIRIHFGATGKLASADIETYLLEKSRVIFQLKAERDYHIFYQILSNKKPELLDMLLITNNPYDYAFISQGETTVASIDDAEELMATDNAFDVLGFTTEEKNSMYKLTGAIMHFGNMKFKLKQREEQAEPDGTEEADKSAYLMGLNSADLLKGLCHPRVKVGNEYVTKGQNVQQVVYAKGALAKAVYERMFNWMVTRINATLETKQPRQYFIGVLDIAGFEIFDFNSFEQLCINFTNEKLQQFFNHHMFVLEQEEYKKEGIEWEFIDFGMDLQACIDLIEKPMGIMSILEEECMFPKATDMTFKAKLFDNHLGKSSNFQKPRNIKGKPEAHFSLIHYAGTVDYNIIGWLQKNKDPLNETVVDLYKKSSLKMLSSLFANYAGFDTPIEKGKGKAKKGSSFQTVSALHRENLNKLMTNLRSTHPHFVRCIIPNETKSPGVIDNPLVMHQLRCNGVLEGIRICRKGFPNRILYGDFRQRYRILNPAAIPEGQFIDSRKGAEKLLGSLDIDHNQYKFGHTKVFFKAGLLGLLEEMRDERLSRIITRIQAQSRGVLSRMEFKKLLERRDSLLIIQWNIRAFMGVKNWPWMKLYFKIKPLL
T1 sequence (P85100 2-199 partner): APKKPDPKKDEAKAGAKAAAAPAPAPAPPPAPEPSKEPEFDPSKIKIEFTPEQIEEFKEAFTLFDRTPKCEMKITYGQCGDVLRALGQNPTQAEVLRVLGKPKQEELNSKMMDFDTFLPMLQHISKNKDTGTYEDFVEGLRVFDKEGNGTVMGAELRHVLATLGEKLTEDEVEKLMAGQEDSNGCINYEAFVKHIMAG

COC(=O)N1CCN(Cc2cccc(NC(=O)Nc3ccc(C)nc3)c2F)CC1 [OM, Omecamtiv mecarbil]
Kd: 0.29 ± 0.04 µM

Source: PMC5543065, “Mechanistic and structural basis for activation of cardiac myosin force production by omecamtiv mecarbil” (Nature Communications, 2017)
